According to US20100074968A1, “AGENT AND METHOD FOR TREATING CANCER COMPRISING STRONTIUM, AMINO ACID(S) AND MINERAL AGENT(S)” (HELSINGFORS INSTITUTION FÖR BIOMMUNTERAPI AB., priority 2003, published 2010):

Key:
[1] = Effect of strontium intake on serum hormone levels in healthy individual(s); format: in vivo, human
Method: When healthy individuals were given 7 mg strontium chloride per day, the PRL level increased within two weeks 50-80% from a normal base value. […]
The effect of strontium intake on selected physiological reactions was evaluated by administering strontium alone or together with the full dietary support program described in table 1 to four prostate cancer patients, P1-P4, and to one healthy individual. The results are shown in table 4, which also gives the normal values for the measured hormones.

prostate cancer (CaP) = assay: Strontium alone or with full dietary support program in prostate cancer patients: hormone/PSA levels and clinical course; format: in vivo, human
Method: In addition to the dietary biomodulating components prescribed (see Table 1), the patient ingested a daily amount of 7 mg of strontium oxide, contained in birch ash that they prepared at home and was taking continuously at a dose of about 8 g per day.
• 1. Oral administration of each (2-5 g/day) of respective L-amino acids: Arg, Asp, Glu, Gly, Lys and Ser in connection with meals. The amino acids are manufactured by Degussa Ag, Germany. • 2. […] Small physiologic amounts of vitamins: A, B, C, D, E, K, folic acid and lycopene. • 4. To improve lymphopoiesis and the immune defense of patients a diet containing prionfree neurogenic lipids (equivalent to approx. 50 g of brain) was recommended, (purchased and canned by Neurofood Ltd. Finland). • 5. All these dietary ingredients can be mixed together in yoghurt, forming a daily ration, using pre-packed pulvers. • 6. Dose-levels are adjusted based on clinical response as measured, and correlated to the patient's body weight.
The effect of strontium intake on selected physiological reactions was evaluated by administering strontium alone or together with the full dietary support program described in table 1 to four prostate cancer patients, P1-P4, and to one healthy individual.

[2] = long-lasting use for diagnostic purposes, i.v. dose up to 80 mg SrCl2; cited from earlier work
[3] = P0 without Sr for three weeks (after the Sr course)
[4] = healthy individual P0, after Sr 7 mg, 14 days
[5] = healthy individuals, 7 mg strontium chloride per day, two weeks
[6] = healthy persons, ingestion of strontium (in mg's)
[7] = patients diagnosed with prostate cancer, administration of strontium
[8] = laboratory pattern, orchiectomized patient P1 (No. 1), 7 mg strontium oxide daily plus dietary biomodulating components
[9] = patient P1, year 2003, 7 mg strontium oxide daily (birch ash) plus dietary biomodulating components

## [Cl-].[Cl-].[Sr+2] [strontium chloride]
[1]; [3]
  DHEAS: 2.7 µmol/L
  FSH: 11 IU/L
  PRL: 337 mU/L
  PSA: 0.4 µg/L
  serum DHEA: 3.6 nmol/L
[1]; [4]
  DHEAS: 2.3 µmol/L
  FSH: 13 IU/L
  PRL: 389 mU/L
  PSA: 0.4 µg/L
  serum DHEA: 9.8 nmol/L
[1]; healthy individuals, 7 mg strontium chloride per day
  FSH level: can increase or remain on a level exceeding normal levels
[1]; [5]
  serum DHEA level: can show an increase in value
  serum DHEAS level: decreased
[1]; healthy individuals, 7 mg strontium chloride per day, within two weeks, from normal base value
  serum prolactin (PRL) level increase: 50-80%
[1]; [6]
  PRL increase: > 50%
  decrease in DHEAS: ~40%
Prostate cancer (CaP); [7]
  DHEAS level: decrease
  FSH level: increases
  PSA level: decrease
Prostate cancer (CaP); prostate cancer patient P2
  DHEAS: <0.8 µmol/L
  PRL: 852 mU/L
  PSA: 12.6 µg/L
Prostate cancer (CaP); prostate cancer patient P3 ±
  DHEAS: 2.5 µmol/L
  FSH: 12 IU/L
  PRL: 568 mU/L
  PSA: 12.7 µg/L
  serum DHEA: 4.3 nmol/L
Prostate cancer (CaP); prostate cancer patient P4 ±
  DHEAS: <0.8 µmol/L
  FSH: 13 IU/L
  PRL: 1879 mU/L
  PSA: 24.0 µg/L
  serum DHEA: 2.4 nmol/L
[2]
  harmful side effects: No harmful therapeutic side effects

## [O-2].[Sr+2] [strontium oxide]
Prostate cancer (CaP); [8]
  Activin: 330 to 500 pg/mL
  DHEA: <2.0 nmol/L
  DHEAS: <0.8 µmol/L
  Inhibin: <7.8 pg/mL
  PRL: 15-95 mU/L
  PSA: <0.1 µg/L
  SHBG: 58 to 61 nmol/L
  Testost: 1.0 nmol/L
Prostate cancer (CaP); patient P1, multiple bone-metastases
  time until bone-metastases disappeared: four
Prostate cancer (CaP); patient P1, multiple bone-metastases, from beginning of treatment
  time until bone-pain subsided: 6 months
Prostate cancer (CaP); [9]
  DHEA value: below 2.0
  FSH level: about 48 IU/l
  prolactin (PRL) value: about 97 mU/l
Prostate cancer (CaP); patient P1, year 2003, 7 mg strontium oxide daily (birch ash) plus dietary biomodulating components, below detectable limit
  serum DHEAS level: < 0.8
Prostate cancer (CaP); patient P1, year 2003, treatment since 1990
  clinical condition: excellent clinical condition
